Experimental data taken from patent US8741868B2, “Pharmaceutical composition including an HIF-2 alpha inhibitor as an active ingredient for preventing or treating arthritis” (Gwangju Institute of Science and Technology, priority 2010, dated 2014).

Legend:
[1] = test system: HIF-2α; assay: Expression of HIF-2α in mouse knee joint chondrocytes (RT-PCR, qRT-PCR, western blot); assay type: cell-based; conditions: for expression of HIF-2α transcripts and proteins: signal pathway inhibitor in chondrocytes; for expression of HIF-2α: mouse knee joint chondrocytes treated with the cytokine
Experimental: In order to induce pathological condition of cartilage degeneration in knee joint chondrocytes of mouse (Charles River, Japan), the cells were treated with interleukin 1β (IL-1β, Calbiochem, USA), IL-17 (R&D Systems, USA), TNF-α (R&D Systems, USA) or IL-21 (R&D Systems, USA), which are known as proinflammatory cytokines. The expression level of HIF-2α was investigated by RT-PCR, qRT-PCR and western blot. The mouse knee joint chondrocytes were isolated from the knee joint of 8-day-old ICR mouse (Charles River, Japan) and cultured in DMEM (Gibco, USA) containing 10% (v/v) fetal bovine serum (Gibco, USA), 50 μg/mL streptomycin (Sigma-Aldrich, USA) and 50 unit/mL penicillin (Sigma-Aldrich, USA). As a result, it was confirmed that whereas the expression of HIF-2α is increased by the proinflammatory cytokines, it is not affected by the anti-inflammatory cytokines IL-4 (R&D Systems, USA), IL-10 (R&D Systems, USA) and […] (R&D Systems, USA) (FIGS. 2a and 2b). IL-1β activates various signal transduction pathways in chondrocytes. Activation of NF-κβ and degradation of IκB protein were confirmed by western blot, and phosphorylation of extracellular signal-regulated kinase (ERK), c-Jun N-terminal kinase (JNK) and p38 MAP kinase from among mitogen-activated protein (MAP) kinase subtypes was confirmed by western blot (FIG. 2c). […] Accordingly, it was confirmed through RT-PCR and western blot (FIG. 2d) and quantification of HIF-2α transcripts by real-time RT-PCR (qRT-PCR) that NFkB and JNK regulate the expression of HIF-2α (FIG. 2e). It was confirmed through immunohistochemical staining that IκB and phosphorylated JNK (pJNK) activating NF-κβ are activated in larger amounts in human degenerative articular cartilage tissue (OA; osteoarthritis) as compared to normal cartilage (Normal).

[2] = test system: MAP kinase; assay: MAP kinase phosphorylation in cytokine-treated chondrocytes; assay type: cell-based; conditions: cytokine-treated mouse knee articular chondrocytes, HIF-2α-siRNA
Source text: According to a preferred embodiment, the siRNA of the present invention has nucleotide sequence included the nucleotide sequence as set forth in SEQ ID NO:1.

[3] = test system: nitric oxide (NO) and prostaglandin E2 (PGE2); assay: Production of nitric oxide (NO) and prostaglandin E2 (PGE2) in articular chondrocytes; assay type: cell-based; conditions: mouse knee joint chondrocytes
Source text: (§1) Also, it was confirmed by qRT-PCR that the expression level of these transcripts is increased by Ad-HIF-2α and decreased by siRNA (FIG. 4a). The experimental procedure was the same as with MMP and ADAMT as described above. NOS2 and PTGS2 regulate cartilage degeneration by inducing production of nitric oxide (NO) and prostaglandin E2 (PGE2), respectively. The level of these metabolites was increased by Ad-HIF-2α and decreased by siRNA, as the expression level of PTGS2 and NOS2 transcripts (FIG. 4b).

[4] = test system: cartilage degeneration-inducing factors MMP (1, 3, 9, 12, 13), ADAMTS4, PTGS2, NOS2; assay: Expression of cartilage degeneration-inducing factors in chondrocytes after HIF-2α siRNA (RT-PCR, western blot, qRT-PCR); assay type: cell-based, mouse; conditions: for expression of the cartilage degeneration-inducing factors MMP (1, 3, 9, 12, 13), ADAMTS4, PTGS2, NOS2: siRNA 25, 50, 100 nM for 7 hours, then IL-1β medium 1.5 days, vs C-siRNA 100 nM
Experimental: Also, the expression of the cartilage degeneration-inducing factors was investigated after artificially inhibiting expression of HIF-2α using an siRNA specific for HIF-2α. More specifically, mouse knee joint chondrocytes were kept in a culture medium for 72 hours. After infecting with control (C-siRNA, 100 nM) or HIF-2α siRNA (25, 50, 100 nM) for 7 hours, the cells were cultured in a medium containing IL-1B for 1.5 days. The cells were recovered and cartilage degeneration-inducing factors were identified by RT-PCR and western blot. GAPDH and lamin B were used as loading control. Also, mRNA (FIG. 3a) and protein (FIG. 3b) levels of HIF-2α, MMP, ADAMTS, PTGS2 and NOS2 were measured by RT-PCR and western blot and their expression level was quantitated by qRT-PCR (FIGS. 3c and 3d). GAPDH and lamin B were used as loading control. Primers used in PCR are described in Table 1. As a result, it was confirmed that the expression of the cartilage degeneration-inducing factors MMP (1, 3, 9, 12, 13), ADAMTS4, PTGs2, NOS2, etc. is decreased as the expression of HIF-2α is inhibited.
as §1

| Molecule | expression of HIF-2α [1] | also measured |
| --- | --- | --- |
| CC(C)(C)c1ccc(S(=O)(=O)/C=C/C#N)cc1 [BAY 11-7085, reference compound] |  | expression of HIF-2α transcripts and proteins [1]: decreased remarkably |
| COc1cccc(-c2cc(=O)c3ccccc3o2)c1N [PD98059, reference compound] |  | expression of HIF-2α transcripts and proteins [1]: inhibition effect was slightly weak |
| C[S+]([O-])c1ccc(-c2nc(-c3ccncc3)c(-c3ccc(F)cc3)[nH]2)cc1 (stereo not shown) [SB203580, reference compound] |  | expression of HIF-2α transcripts and proteins [1]: no effect |
| HIF-2α siRNA: siRNA specific for HIF-2α; mouse sense 5′-AGUUGUUGUAGACUUUCACCUGGC-3′, antisense 5′-GGCCAGGUGAAAGUCUACAACAAC-3′ (SEQ ID NO 4, 5) (listed as RNA, chemistry not given here) |  | MAP kinase phosphorylation [2]: significantly reduced; level of metabolites nitric oxide (NO) and prostaglandin E2 (PGE2) [3]: decreased; expression level of PTGS2 and NOS2 transcripts (qRT-PCR) ([4]; mouse knee joint chondrocytes, siRNA): decreased; expression of the cartilage degeneration-inducing factors MMP (1, 3, 9, 12, 13), ADAMTS4, PTGS2, NOS2 [4]: decreased; expression of the cartilage degeneration-inducing factors MMP (1, 3, 9, 12, 13), ADAMTS4, PTGS2, NOS2 ([4]; listed as HIF-2α-siRNA): markedly decreased |
| IL-17: proinflammatory cytokine (R&D Systems, USA) | increased |  |
| IL-18: proinflammatory cytokine named in the legend of FIG. 2 | increased |  |
| IL-21: proinflammatory cytokine (R&D Systems, USA) | increased |  |
| TNF-α | increased |  |
| interleukin 1β [IL-1β] | increased |  |
| IL-4: anti-inflammatory cytokine (R&D Systems, USA) (protein, UniProt P05112 25-153, looked up) Interleukin-4: HKCDITLQEIIKTLNSLTEQKTLCTELTVTDIFAASKNTTEKETFCRAATVLRQFYSHHEKDTRCLGATAQQFHRHKQLIRFLKRLDRNLWGLAGLNSCPVKEANQSTLENFLERLKTIMREKYSKCSS | not affected |  |
| IL-12: anti-inflammatory cytokine (R&D Systems, USA) (protein, UniProt P29459 23-219; P29460 23-328, looked up) Interleukin-12 subunit alpha: RNLPVATPDPGMFPCLHHSQNLLRAVSNMLQKARQTLEFYPCTSEEIDHEDITKDKTSTVEACLPLELTKNESCLNSRETSFITNGSCLASRKTSFMMALCLSSIYEDLKMYQVEFKTMNAKLLMDPKRQIFLDQNMLAVIDELMQALNFNSETVPQKSSLEEPDFYKTKIKLCILLHAFRIRAVTIDRVMSYLNAS Interleukin-12 subunit beta: IWELKKDVYVVELDWYPDAPGEMVVLTCDTPEEDGITWTLDQSSEVLGSGKTLTIQVKEFGDAGQYTCHKGGEVLSHSLLLLHKKEDGIWSTDILKDQKEPKNKTFLRCEAKNYSGRFTCWWLTTISTDLTFSVKSSRGSSDPQGVTCGAATLSAERVRGDNKEYEYSVECQEDSACPAAEESLPIEVMVDAVHKLKYENYTSSFFIRDIIKPDPPKNLQLKPLKNSRQVEVSWEYPDTWSTPHSYFSLTFCVQVQGKSKREKKDRVFTDKTSATVICRKNASISVRAQDRYYSSSWSEWASVPCS | not affected |  |
| IL-10: anti-inflammatory cytokine (R&D Systems, USA) (protein, UniProt P22301 19-178, looked up) Interleukin-10: SPGQGTQSENSCTHFPGNLPNMLRDLRDAFSRVKTFFQMKDQLDNLLLKESLLEDFKGYLGCQALSEMIQFYLEEVMPQAENQDPDIKAHVNSLGENLKTLRLRLRRCHRFLPCENKSKAVEQVKNAFNKLQEKGIYKAMSEFDIFINYIEAYMTMKIRN | not affected |  |
